Data from US20220402882A1, “HERBICIDAL COMPOUNDS” (SYNGENTA CROP PROTECTION AG, priority 2019, published 2022).

How the values were obtained:
Format in all cases: in vivo
Details in all cases: evaluated after 13 days
[1] = system: Echinochloa crus-galli (ECHCG); test: Pre-emergence glasshouse herbicide test
Protocol: (§1) Seeds of a variety of test species are sown in standard soil in pots (Lolium perenne (LOLPE), Amaranthus retoflexus (AMARE), Abutilon theophrasti (ABUTH), Setaria faberi (SETFA), Echinochloa crus-galli (ECHCG), Ipomoea hederacea (IPOHE)). After cultivation for one day (pre-emergence) or after 8 days cultivation (post-emergence) under controlled conditions in a glasshouse (at 24/16° C., day/night; 14 hours light; 65% humidity), the plants are sprayed with an aqueous spray solution derived from the formulation of the technical active ingredient in acetone/water (50:50) solution containing 0.5% Tween™ 20 (polyoxyethelyene sorbitan monolaurate, CAS RN 9005-64-5). Compounds are applied at 125 g/h unless otherwise indicated. The test plants are then grown in a glasshouse under controlled conditions in a glasshouse (at 24/16° C., day/night; 14 hours light; 65% humidity) and watered twice daily. After 13 days for pre- and post-emergence, the test is evaluated for the percentage damage caused to the plant. The biological activities are shown in the following table on a five-point scale (5=80-100%; 4=60-79%; 3=40-59%; 2=20-39%; 1=0-19%).

[2] = system: Ipomoea hederacea (IPOHE); test: Pre-emergence glasshouse herbicide test
Protocol: as §1

Setaria faberi (SETFA) [3] = test: Pre-emergence glasshouse herbicide test
Protocol: as §1

[4] = system: Abutilon theophrasti (ABUTH); test: Pre-emergence glasshouse herbicide test
Protocol: as §1

[5] = system: Amaranthus retoflexus (AMARE); test: Pre-emergence glasshouse herbicide test
Protocol: as §1

[6] = system: Echinochloa crus-galli (ECHCG); test: Post-emergence glasshouse herbicide test
Protocol: as §1

[7] = system: Ipomoea hederacea (IPOHE); test: Post-emergence glasshouse herbicide test
Protocol: as §1

Setaria faberi (SETFA) [8] = test: Post-emergence glasshouse herbicide test
Protocol: as §1

[9] = system: Abutilon theophrasti (ABUTH); test: Post-emergence glasshouse herbicide test
Protocol: as §1

[10] = system: Amaranthus retoflexus (AMARE); test: Post-emergence glasshouse herbicide test
Protocol: as §1

SMILES | percentage damage caused to the plant, ECHCG ([1]; 125 g/h) | percentage damage caused to the plant, IPOHE ([2]; 125 g/h) | percentage damage caused to the plant, SETFA (Setaria faberi (SETFA) [3]; 125 g/h) | percentage damage caused to the plant, ABUTH ([4]; 125 g/h) | percentage damage caused to the plant, AMARE ([5]; 125 g/h) | percentage damage caused to the plant, ECHCG ([6]; 125 g/h) | percentage damage caused to the plant, IPOHE ([7]; 125 g/h) | percentage damage caused to the plant, SETFA (Setaria faberi (SETFA) [8]; 125 g/h) | percentage damage caused to the plant, ABUTH ([9]; 125 g/h) | percentage damage caused to the plant, AMARE ([10]; 125 g/h) | percentage damage caused to the plant, ECHCG ([1]; *Applied at 250 g/ha) | percentage damage caused to the plant, IPOHE ([2]; *Applied at 250 g/ha) | percentage damage caused to the plant, SETFA (Setaria faberi (SETFA) [3]; *Applied at 250 g/ha) | percentage damage caused to the plant, ABUTH ([4]; *Applied at 250 g/ha) | percentage damage caused to the plant, AMARE ([5]; *Applied at 250 g/ha) | percentage damage caused to the plant, ECHCG ([6]; *Applied at 250 g/ha) | percentage damage caused to the plant, IPOHE ([7]; *Applied at 250 g/ha) | percentage damage caused to the plant, SETFA (Setaria faberi (SETFA) [8]; *Applied at 250 g/ha) | percentage damage caused to the plant, ABUTH ([9]; *Applied at 250 g/ha) | percentage damage caused to the plant, AMARE ([10]; *Applied at 250 g/ha)
CC[S+]([O-])c1c(OCC(F)(F)F)ccc(C(=O)Nc2nnnn2C)c1Cl (centres unmarked) [Compound 1.036] | 5 (5=80-100%) | 4 (4=60-79%) | 5 (5=80-100%) | 5 (5=80-100%) | 5 (5=80-100%) | 5 (5=80-100%) | 5 (5=80-100%) | 5 (5=80-100%) | 5 (5=80-100%) | 5 (5=80-100%) |  |  |  |  |  |  |  |  |  | 
CC[S+]([O-])c1c(OC(F)F)ccc(C(=O)Nc2nnnn2C)c1C (centres unmarked) [Compound 1.029] | 5 (5=80-100%) | 4 (4=60-79%) | 5 (5=80-100%) | 5 (5=80-100%) | 5 (5=80-100%) | 5 (5=80-100%) | 5 (5=80-100%) | 5 (5=80-100%) | 5 (5=80-100%) | 5 (5=80-100%) |  |  |  |  |  |  |  |  |  | 
CCS(=O)(=O)c1c(OCC(F)(F)F)ccc(C(=O)Nc2nnnn2C)c1Cl [Compound 1.035] | 5 (5=80-100%) | 5 (5=80-100%) | 5 (5=80-100%) | 5 (5=80-100%) | 5 (5=80-100%) | 5 (5=80-100%) | 5 (5=80-100%) | 5 (5=80-100%) | 5 (5=80-100%) | 5 (5=80-100%) |  |  |  |  |  |  |  |  |  | 
CCS(=O)(=O)c1c(CC(F)(F)F)ccc(C(=O)Nc2nnnn2C)c1Cl [Compound 1.022] | 5 (5=80-100%) | 5 (5=80-100%) | 5 (5=80-100%) | 5 (5=80-100%) | 5 (5=80-100%) | 5 (5=80-100%) | 5 (5=80-100%) | 5 (5=80-100%) | 5 (5=80-100%) | 4 (4=60-79%) |  |  |  |  |  |  |  |  |  | 
CSc1c(OC(F)(F)F)ccc(C(=O)Nc2nnnn2C)c1Cl [Compound 1.005, 2-chloro-3-methylsulfanyl-N-(1-methyltetrazol-5-yl)-4-(trifluoromethoxy)benzamide] |  |  |  |  |  |  |  |  |  |  | 1 (1=0-19%) | 1 (1=0-19%) | 1 (1=0-19%) | 2 (2=20-39%) | 4 (4=60-79%) | 5 (5=80-100%) | 5 (5=80-100%) | 5 (5=80-100%) | 5 (5=80-100%) | 5 (5=80-100%)
CCSc1c(OC(F)(F)F)ccc(C(=O)Nc2nnnn2C)c1Cl [Compound 1.021] | 5 (5=80-100%) | 3 (3=40-59%) | 5 (5=80-100%) | 4 (4=60-79%) | 5 (5=80-100%) | 5 (5=80-100%) | 5 (5=80-100%) | 5 (5=80-100%) | 5 (5=80-100%) | 4 (4=60-79%) |  |  |  |  |  |  |  |  |  | 
CC[S+]([O-])c1c(OC(F)(F)F)ccc(C(=O)Nc2nnnn2C)c1C (centres unmarked) [Compound 1.023] | 5 (5=80-100%) | 5 (5=80-100%) | 5 (5=80-100%) | 5 (5=80-100%) | 5 (5=80-100%) | 5 (5=80-100%) | 5 (5=80-100%) | 5 (5=80-100%) | 5 (5=80-100%) | 5 (5=80-100%) |  |  |  |  |  |  |  |  |  | 
CC[S+]([O-])c1c(OCC(F)(F)F)ccc(C(=O)Nc2nnnn2C)c1C (centres unmarked) [Compound 1.039] | 4 (4=60-79%) | 4 (4=60-79%) | 4 (4=60-79%) | 5 (5=80-100%) | 5 (5=80-100%) | 5 (5=80-100%) | 4 (4=60-79%) | 5 (5=80-100%) | 5 (5=80-100%) | 5 (5=80-100%) |  |  |  |  |  |  |  |  |  | 
CCSc1c(OC(F)F)ccc(C(=O)Nc2nnnn2C)c1C [Compound 1.028] | 5 (5=80-100%) | 3 (3=40-59%) | 5 (5=80-100%) | 5 (5=80-100%) | 5 (5=80-100%) | 5 (5=80-100%) | 5 (5=80-100%) | 5 (5=80-100%) | 5 (5=80-100%) | 5 (5=80-100%) |  |  |  |  |  |  |  |  |  | 
CCn1nnnc1NC(=O)c1ccc(OCC(F)(F)F)c(S(=O)(=O)CC)c1Cl [Compound 1.065] | 5 (5=80-100%) | 3 (3=40-59%) | 5 (5=80-100%) | 5 (5=80-100%) | 5 (5=80-100%) | 5 (5=80-100%) | 4 (4=60-79%) | 5 (5=80-100%) | 5 (5=80-100%) | 5 (5=80-100%) |  |  |  |  |  |  |  |  |  | 
CSc1c(OC(F)(F)F)ccc(C(=O)Nc2nnc(C)o2)c1Cl [Compound 2.006] |  |  |  |  |  |  |  |  |  |  | 1 (1=0-19%) | 1 (1=0-19%) | 1 (1=0-19%) | 2 (2=20-39%) | 5 (5=80-100%) | 5 (5=80-100%) | 5 (5=80-100%) | 5 (5=80-100%) | 5 (5=80-100%) | 5 (5=80-100%)
